Calls of active or inactive are those of the source. The rule behind the calls is not given here.
Tests used:
[1] = Antiviral activity against 1 MOI Bovine viral diarrhea virus NADL infected in MDBK cells assessed as reduction in viral titer after 72 hrs by plaque forming assay; format: functional, cell-based, Bovine viral diarrhea virus 1-NADL; conditions: Bovine viral diarrhea virus isolates and strains
[2] = system: MDBK; assay: Antiviral activity against 1 MOI Bovine viral diarrhea virus NADL infected in bovine MDBK cells assessed as inhibition of viral RNA replication at 100 uM after 6 hrs by RT-PCR; format: functional, cell-based; conditions: Bovine viral diarrhea virus 1-NADL
[3] = system: MDBK; assay: Antiviral activity against 1 MOI Bovine viral diarrhea virus NADL infected in bovine MDBK cells assessed as inhibition of viral RNA replication at 100 uM after 12 hrs by RT-PCR; format: functional, cell-based; conditions: Bovine viral diarrhea virus 1-NADL
[4] = system: MDBK; assay: Antiviral activity against 1 MOI Bovine viral diarrhea virus NADL infected in bovine MDBK cells assessed as inhibition of viral RNA replication at 80 uM after 12 hrs by RT-PCR; format: functional, cell-based; conditions: Bovine viral diarrhea virus 1-NADL
[5] = Antiviral activity against 1 MOI Bovine viral diarrhea virus NADL infected in bovine MDBK cells assessed as inhibition of intracellular viral RNA production at 80 uM after 24 hrs by RT-PCR; format: functional, Bovine viral diarrhea virus 1-NADL; conditions: Bovine viral diarrhea virus isolates and strains
[6] = Antiviral activity against 1 MOI Bovine viral diarrhea virus NADL infected in bovine MDBK cells assessed as reduction in viral titer at 100 uM after 24 hrs by RT-PCR; format: functional, Bovine viral diarrhea virus 1-NADL; conditions: Bovine viral diarrhea virus isolates and strains
[7] = system: West Nile virus; assay: Antiviral activity against West Nile virus infected in baby hamster kidney cells assessed as reduction in viral titer after 72 hrs by plaque reduction assay; format: functional, organism-based
[8] = Cytotoxicity against BHK cells by MTT assay; format: cell-based, Mesocricetus auratus; conditions: hamster
[9] = system: Bovine viral diarrhea virus 1-NADL; assay: Inhibition of […] assessed as reduced E2 protein mobility after 24 hrs by Western blotting
[10] = Cytotoxicity against MDBK cells by MTT assay; format: cell-based, Bos taurus; conditions: cattle
[11] = system: MDBK; assay: Antiviral activity against 1 MOI Bovine viral diarrhea virus NADL infected in bovine MDBK cells assessed as inhibition of viral RNA replication at 80 uM after 6 hrs by RT-PCR; format: functional, cell-based; conditions: Bovine viral diarrhea virus 1-NADL
[12] = Selectivity index, ratio of CC50 for bovine MDBK cells to EC50 for 1 MOI Bovine viral diarrhea virus infected in bovine MDBK cells; format: toxicity, cell-based; conditions: cattle; read-out: Ratio CC50/EC50
[13] = Antiviral activity against 1 MOI Bovine viral diarrhea virus NADL infected in bovine MDBK cells assessed as inhibition of intracellular viral RNA production at 100 uM after 24 hrs by RT-PCR; format: functional, Bovine viral diarrhea virus 1-NADL; conditions: Bovine viral diarrhea virus isolates and strains
[14] = system: Dengue virus; assay: Antiviral activity against Dengue virus C infected in african green monkey Vero cells assessed as reduction in viral titer after 72 hrs by plaque reduction assay; format: functional, organism-based
[15] = (§1) Antiviral activity against 1 MOI Bovine viral diarrhea virus NADL infected in bovine MDBK cells assessed as inhibition of viral RNA replication at 80 uM after 24 hrs by RT-PCR; format: functional, Bovine viral diarrhea virus 1-NADL; conditions: Bovine viral diarrhea virus isolates and strains
[16] = Antiviral activity against 1 MOI Bovine viral diarrhea virus NADL infected in bovine MDBK cells assessed as reduction in viral titer at 80 uM after 24 hrs by RT-PCR; format: functional, Bovine viral diarrhea virus 1-NADL; conditions: Bovine viral diarrhea virus isolates and strains
[17] = Cytotoxicity against african green monkey Vero cells by MTT assay; format: cell-based; conditions: chlorocebus sabaeus
[18] = Antiviral activity against 1 MOI Bovine viral diarrhea virus NADL infected in bovine MDBK cells assessed as inhibition of extracellular viral RNA production at 80 uM after 24 hrs by RT-PCR; format: functional, Bovine viral diarrhea virus 1-NADL; conditions: Bovine viral diarrhea virus isolates and strains
[19] = Antiviral activity against 1 MOI Bovine viral diarrhea virus NADL infected in bovine MDBK cells assessed as inhibition of extracellular viral RNA production at 100 uM after 24 hrs by RT-PCR; format: functional, Bovine viral diarrhea virus 1-NADL; conditions: Bovine viral diarrhea virus isolates and strains
[20] = Antiviral activity against 1 MOI Bovine viral diarrhea virus NADL infected in bovine MDBK cells assessed as inhibition of viral RNA replication at 100 uM after 24 hrs by RT-PCR; format: functional, Bovine viral diarrhea virus 1-NADL; conditions: Bovine viral diarrhea virus isolates and strains
[21] = system: Dengue virus; assay: Antiviral activity against Dengue virus; format: functional, organism-based
[22] = system: Bovine viral diarrhea virus 1; assay: Antiviral activity against Bovine viral diarrhea virus 1; format: functional, organism-based; conditions: Bovine viral diarrhea virus isolates and strains
[23] = system: MDBK; assay: as §1; format: functional; conditions: Bovine viral diarrhea virus 1-NADL

SMILES | EC50 [1] [µM] | EC90 [1] [µM] | EC50 [7] [µM] | CC50 [8] [µM] | CC50 [10] [µM] | selectivity ratio [12] | EC50 [14] [µM] | EC90 [14] [µM] | CC50 [17] [µM] | other results
OC[C@@H]1[C@@H](O)[C@H](O)[C@@H](O)CN1CCCCCC1(O)CCCCC1 | 10.5 | > 100 | 4.5 | > 100 | > 500 | > 48 | 4 | 8.7 | > 40 | inhibition [2]: inactive; inhibition [3]: inactive; inhibition [4]: inactive; inhibition at 80 µM [5]: 40%; inhibition at 100 µM [6]: 89%; inhibition [9]: Dose-dependent effect; inhibition [11]: inactive; inhibition at 100 µM [13]: 40%; inhibition at 80 µM [15]: 40%; inhibition at 80 µM [16]: 89%; inhibition at 80 µM [18]: 73%; inhibition at 100 µM [19]: 73%; inhibition at 100 µM [20]: 40%
OC[C@@H]1[C@@H](O)[C@H](O)[C@@H](O)CN1CCCCCOCC1CC2CCC1C2 (stereo partly specified) | 2.9 | 22 |  |  | > 500 | > 172 |  |  |  | 
OC[C@@H]1[C@@H](O)[C@H](O)[C@@H](O)CN1CCCCCCC1(O)CCCCC1 | 18 | 82.5 |  |  | > 500 | > 28 |  |  |  | 
CCCCN1C[C@H](O)[C@@H](O)[C@H](O)[C@H]1CO [MIGLUSTAT] |  |  |  |  |  |  |  |  |  | EC50 [21]: 100 µM; EC50 [22]: 100 µM
CCC(O)(CC)CCCCCN1C[C@H](O)[C@@H](O)[C@H](O)[C@H]1CO | 22 | > 100 |  |  | > 500 | > 23 |  |  |  | 
CC(C)[C@@H]1CC[C@@H](C)CC1OCCCCCCN1C[C@H](O)[C@@H](O)[C@H](O)[C@H]1CO (stereo partly specified) | 1.6 | 14.8 | 4.75 | 70 | 235 | 146 | 0.1 | 0.2 | 80 | EC90 [7]: 19 µM
OC[C@@H]1[C@@H](O)[C@H](O)[C@@H](O)CN1CCCCCCOC1CC2CCC1C2 (stereo partly specified) | 4.5 | 47 |  |  | > 500 | > 111 |  |  |  | 
Cc1ccc(C)c(OCCCCCCN2C[C@H](O)[C@@H](O)[C@H](O)[C@H]2CO)c1 | 3 | 24.9 | 1.5 | 75 | 485 | 162 | 0.1 | 0.6 | 85 | EC90 [7]: 20 µM
CCCCCCCCCN1C[C@H](O)[C@@H](O)[C@H](O)[C@H]1CO | 7.3 | 71 | 4 | 20 | 245 | 33 | 1.1 | 3.3 | > 40 | 
CCCC(O)(CCC)CCCCCN1C[C@H](O)[C@@H](O)[C@H](O)[C@H]1CO | 9.5 | > 100 |  |  | > 500 | > 53 |  |  |  | 
C[C@@H]1CCCCC1OCCCCCCN1C[C@H](O)[C@@H](O)[C@H](O)[C@H]1CO (stereo partly specified) | 3.3 | 14.3 | 3.5 | 70 | > 500 | > 151 | 0.075 | 0.6 | 65 | EC90 [7]: 33 µM
CC1CCC(OCCCCCCN2C[C@H](O)[C@@H](O)[C@H](O)[C@H]2CO)CC1 (stereo partly specified) | 7.1 | 53 |  |  | > 500 | > 70 | 6.75 | 13 | > 40 | inhibition [3]: inactive; inhibition [4]: inactive; inhibition at 80 µM [5]: 40%; inhibition at 100 µM [6]: 89%; inhibition at 100 µM [13]: 40%; inhibition [23]: Active; inhibition at 80 µM [15]: 40%; inhibition at 80 µM [16]: 89%; inhibition at 80 µM [18]: 73%; inhibition at 100 µM [19]: 73%; inhibition at 100 µM [20]: 40%

From ChEMBL document CHEMBL1649172, “Novel imino sugar derivatives demonstrate potent antiviral activity against flaviviruses” (Antimicrob Agents Chemother, 2009)
